Results reported in patent US20250186329A1, “A SKIN BRIGHTENING COMPOSITION” (Conopco, Inc., d/b/a UNILEVER, priority 2022, published 2025).
Marks after values point to notes of the source that are not given here.

Test system: co-cultures of HaCaT keratinocytes and melanocytes (neonatal primary human epidermal melanocytes)
Assay: Melanin content assay (% cellular melanin vs control) in keratinocyte/melanocyte co-cultures
Assay type: cell-based
Settings: percentage cellular melanin vs control; 72 h of active treatment; OD at 405 nm; active concentrations (wt %) as given per example
Procedure: Various samples containing actives were prepared and the % cellular melanin content was measured. The protocol for measuring the cellular melanin is summarized below:
Neonatal primary human epidermal melanocytes were sourced from Life Technologies. Melanocytes were maintained in Medium 254 supplemented with human melanocyte growth supplement (MGM). HaCaT keratinocytes were maintained in DMEM medium containing 10% heat inactivated FBS. All media were also supplemented with 10 U/mL penicillin G and 0.1 mg/mL streptomycin sulphate. Both cell types were maintained at 37° C. in a humidified incubator with 5% CO2 atmosphere. Maintenance and sub-culturing of cells were carried out as per the manufacturer's instructions.
For setup of co-cultures, 40,000 cells each of HaCaT keratinocytes and melanocytes were mixed in 1 mL of a 1:1 mix of MGM:KGM (KGM: Epilife medium supplemented with human keratinocyte growth supplement) and seeded as such per well, in 12 well Nunc plates.
Actives were prepared in media and test concentrations were added to cells along with relevant controls 24 h post seeding. After 72 h of active treatment, cell viability (using calcein method) and measurement of cellular melanin content was determined as described below.
After calcein fluorescence readings were obtained, cells were drained and fresh 0.15 mL of 1N NaOH (in 10% DMSO) per well was added. Cells were lysed by resuspension and incubation (60° C. for 1 h). Then, 0.1 mL of this lysate was transferred to a fresh 384-well plate and OD was measured at 405 nm in a TECAN M1000 plate reader. Melanin content was calculated as percentage cellular melanin vs control.

Molecule	% cellular melanin
Inulin [Example C]	96%
CCCCCCc1ccc(O)cc1O [Example E, 4-hexyl resorcinol, reference compound]	69* %
Inulin [B]	86%
